From US8779157B2, “MGLUR4 allosteric potentiators, compositions, and methods of treating neurological dysfunction” (Vanderbilt University, priority 2009, dated 2014)

These compounds were tested against mGluR4 (UniProt Q14833) (assay: mGluR4 potentiation assay (fluorescence, Ca2+ or thallium/GIRK readout; EC20 agonist)). Details: half maximal effective concentration for mGluR4 potentiation; species of receptor not given.
Format: cell-based, human / rat
Procedure: The disclosed compounds and compositions can be evaluated for their ability to act as a potentiator of metabotropic glutamate receptor activity, in particular mGluR4 activity, by any suitable known methodology known in the art. For example, Chinese Hamster Ovary (CHO) cells transfected with human mGluR4 or HEK cells co-transfected with rat mGluR4 and the G-protein regulated Inwardly Rectifying Potassium channel (GIRK) were plated in clear bottom assay plates for assay in a Hamamatsu FDSS Fluorometric Plate Reader. The cells were loaded with either a Ca2+-sensitive fluorescent dye or the thallium responsive dye and the plates were washed and placed into a suitable kinetic plate reader. For human mGluR4 assays, a fluorescence baseline was established for 3-5 seconds, the disclosed compounds were then added to the cells, and the response in cells was measured. Approximately two and a half minutes later, a concentration of mGluR4 orthosteric agonist (e.g. glutamate or L-AP4) eliciting approximately 20% (EC20) of the maximal agonist response was added to the cells, and the response was measured. Two minutes later, a concentration of mGluR4 agonist (e.g. glutamate or L-AP4) eliciting 80% (EC80) of the maximal agonist response was added to the cells, and the response was measured. For rat mGluR4/GIRK experiments, a baseline was established for approximately five seconds, disclosed compounds were added, and either an EC20 or EC80 concentration of agonist was added approximately two and one half minutes later. Potentiation of the agonist response of mGluR4 by the disclosed compounds was observed as an increase in response to the EC20 concentration of agonist in the presence of compound compared to the response to agonist in the absence of compound. Similarly, antagonism of the agonist response of mGluR4 by the disclosed compounds was observed as a decrease in response to the EC80 concentration of agonist in the presence of compound compared to the response to agonist in the absence of compound.
The above described assay operated in two modes. In the first mode, a range of concentrations of the disclosed compounds are added to cells, followed by a single fixed concentration of agonist. If the compound acts as a potentiatior, an EC50 value for potentiation and a maximum extent of potentiation by the compound at this concentration of agonist is determined by non-linear curve fitting. If the compound acts as a noncompetitive antagonist, an IC50 value is determined by non-linear curve fitting. In the second mode, several fixed concentrations of the disclosed compounds are added to various wells on a plate, followed by a range in concentrations of agonist for each concentration of disclosed compound. The EC50 values for the agonist at each concentration of compound are determined by non-linear curve fitting. A decrease in the EC50 value of the agonist with increasing concentrations of the sample compound (a leftward shift of the agonist concentration-response curve) is an indication of the degree of mGluR4 potentiation at a given concentration of the sample compound. A decrease in the maximal response of the agonist with increasing concentrations of the sample compounds, with or without a rightward shift in agonist potency, is an indication of the degree of noncompetitive antagonism at mGluR4. The second mode also indicates whether the sample compounds also affect the maximum response to mGluR4 to agonists.

SMILES	EC50 [nM]
O=C(Nc1ccc(N2C(=O)C3COCCN3C2=S)c(Cl)c1)c1cnccn1 (centres unmarked) [Example 1.3.31, N-(3-Chloro-4-(1-oxo-3-thioxodihydro-1H-imidazo[5,1-c][1,4]oxazin-2(3H,8H,8aH)-yl)phenyl)pyrazine-2-carboxamide]	3560
O=C(Nc1ccc(N2C(=O)C3COCCN3C2=S)c(Cl)c1)c1cccc(Cl)n1 (centres unmarked) [Example 1.3.32, 6-Chloro N-(3-chloro-4-(1-oxo-3-thioxodihydro-1H-imidazo[5,1-c][1,4]oxazin-2(3H,8H, 8aH)-yl)phenyl)picolinamide]	1490
O=C(Nc1ccc(N2C(=O)C3COCCN3C2=S)c(Cl)c1)c1cccs1 (centres unmarked) [Example 1.3.33, N-(3-Chloro-4-(1-oxo-3-thioxodihydro-1H-imidazo[5,1-c][1,4]oxazin-2(3H,8H,8aH)-yl)phenyl)thiophene-2-carboxamide]	8460
O=C(Nc1ccc(N2C(=O)C3COCCN3C2=S)c(Cl)c1)c1nccs1 (centres unmarked) [Example 1.3.34, N-(3-Chloro-4-(1-oxo-3-thioxodihydro-1H-imidazo[5,1-c][1,4]oxazin-2(3H,8H,8aH)-yl)phenyl)thiazole-2-carboxamide]	1170
O=C(Nc1ccc(N2C(=O)C3COCCN3C2=S)c(Cl)c1)c1cscn1 (centres unmarked) [Example 1.3.35, N-(3-Chloro-4-(1-oxo-3-thioxodihydro-1H-imidazo[5,1-c][1,4]oxazin-2(3H,8H,8aH)-yl)phenyl)thiazole-4-carboxamide]	1490
O=C(Nc1ccc(N2C(=O)C3COCCN3C2=S)c(Cl)c1)c1ncc(F)cc1F (centres unmarked) [Example 1.3.36, N-(3-Chloro-4-(1-oxo-3-thioxodihydro-1H-imidazo[5,1-c][1,4]oxazin-2(3H, 8H,8aH)-yl)phenyl)-3,5-difluoropicolinamide]	1680
O=C(Nc1ccc(N2C(=O)C3COCCN3C2=S)c(Cl)c1)c1ccc(Cl)o1 (centres unmarked) [Example 1.3.37, 5-Chloro-N-(3-chloro-4-(1-oxo-3-thioxodihydro-1H-imidazo[5,1-c][1,4]oxazin-2(3H, 8H,8aH)-yl)phenyl)-furan-2-carboxamide]	5050
O=C(Nc1ccc(N2C(=O)C3COCCN3C2=S)c(Cl)c1)c1cccc(F)n1 (centres unmarked) [Example 1.3.38, N-(3-Chloro-4-(1-oxo-3-thioxodihydro-1H-imidazo[5,1-c][1,4]oxazin-2(3H, 8H,8aH)-yl)phenyl)-6-fluoropicolinamide]	933
O=C(Nc1ccc(N2C(=O)C3COCCN3C2=S)c(Cl)c1)c1ncccc1F (centres unmarked) [Example 1.3.39, N-(3-Chloro-4-(1-oxo-3-thioxodihydro-1H-imidazo[5,1-c][1,4]oxazin-2(3H, 8H,8aH)-yl)phenyl)-3-fluoropicolinamide]	1200
O=C(Nc1ccc(N2C(=O)C3CSCCN3C2=O)c(Cl)c1)c1ccccn1 (centres unmarked) [Example 1.3.40, N-(3-chloro-4-(1,3-dioxodihydro-1H-imidazo[5,1-c][1,4]thiazin-2(3H,8H,8aH)-yl)phenyl)picolinamide]	403
O=C(Nc1ccc(N2C(=O)C3CS(=O)(=O)CCN3C2=O)c(Cl)c1)c1ccccn1 (centres unmarked) [Example 1.3.41, N-(3-chloro-4-(1,3-dioxodihydro-1H-imidazo[5,1-c][1,4]dioxothiazin-2(3H,8H,8aH)-yl)phenyl)picolinamide]	3030
O=C(Nc1ccc(N2C(=O)C3CSCCN3C2=O)c(Cl)c1)c1cccc(F)n1 (centres unmarked) [Example 1.3.42, N-(3-chloro-4-(1,3-dioxodihydro-1H-imidazo[5,1-c][1,4]thiazin-2(3H,8H,8aH)-yl)phenyl)-6-fluoropicolinamide]	1170
O=C(Nc1ccc(N2C(=O)C3CSCCN3C2=O)c(Cl)c1)c1cscn1 (centres unmarked) [Example 1.3.43, N-(3-chloro-4-(1,3-dioxodihydro-1H-imidazo[5,1-c][1,4]thiazin-2(3H,8H,8aH)-yl)phenyl)thiazole-4-carboxamide]	3760
CC(C)(C)OC(=O)N1CCN2C(=O)N(c3ccc(NC(=O)c4ccccn4)cc3Cl)C(=O)C2C1 (centres unmarked) [Example 1.3.44, tert-butyl-2-(2-chloro-4-(picolinamide)phenyl)-1,3-dioxohexahydroimidazo[1,5-a]pyrazine-7(1H)-carboxylate]	754
